Structures can show the parent of a compound that is named as a salt.
Key:
[1] = RP-HPLC relative hydrophobicity / logP correlation; settings: C18 column, H2O/ACN 0.1% TFA gradient, free or Fe(III)-loaded ligand
[2] = system: SK-N-MC neuroepithelioma cells; assay: 59Fe efflux from 59Fe-prelabeled SK-N-MC cells; format: cell-based; settings: compound 50 μM, 3 h, 37° C.; SK-N-MC cells prelabeled 3 h with 59Fe-loaded transferrin (0.75 μM)
SK-N-MC cells = assay: 59Fe uptake into SK-N-MC cells from 59Fe-loaded transferrin; format: cell-based; settings: comparison with DFOB
[3] = oral; cited from earlier work
[4] = standards used in RP-HPLC logP correlation; cited from earlier work

Question: Which results are given for CC(=O)N(O)CCCCCNC(=O)CCC(=O)N(O)CCCCCNC(=O)CCC(=O)N(O)CCCCCNC(=O)C12CC3CC(CC(C3)C1)C2 [adamantane-DFOB, adamantane-desferrioxamine B]?
Answer: relative hydrophobicity / water solubility from RP-HPLC retention [1]: least water soluble; relative hydrophobicity / water solubility from RP-HPLC retention ([1]; listed as adamantane-desferrioxamine B): significantly more hydrophobic; Fe efflux (59Fe released from prelabeled cells) [2]: 28%; competition with 59Fe-loaded transferrin for 59Fe, preventing accumulation of Fe within the cell (SK-N-MC cells): more efficient

Question: With CC(=O)N(O)CCCCCNC(=O)CCC(=O)N(O)CCCCCNC(=O)CCC(=O)N(O)CCCCCNC(=O)c1ccc2c(c1)OCCOCCOCCOCCO2 [benzo-15-crown-5-4-carboxylate-DFOB, benzo-15-crown-5-4-carboxylate-desferrioxamine B] as the compound, how does the “Fe efflux (59Fe released from prelabeled cells)” value (“Fe efflux” for short) [2] read?
Answer: 9.6%

Question: For CC(=O)N(O)CCCCCNC(=O)CCC(=O)N(O)CCCCCNC(=O)CCC(=O)N(O)CCCCCN [Desferal, mesylate salt of desferrioxamine B], which “fraction of an orally administered dose absorbed” value [3] is on record?
Answer: 15%

Question: Which “Fe efflux” value [2] does the source give for CC(=O)N(O)CCCCCNC(=O)CCC(=O)N(O)CCCCCNC(=O)CCC(=O)N(O)CCCCCN [DFOB, desferrioxamine B, reference compound] here?
Answer: 10.8%

Question: Which logP [4] does the source give for Oc1cccc2ccccc12 [α-naphthol] here?
Answer: 2.7

Question: Which results are given for CC(=O)N(O)CCCCCNC(=O)CCC(=O)N(O)CCCCCNC(=O)CCC(=O)N(O)CCCCCNC(=O)COc1ccc(C)cc1 [4-methylphenoxyacetate-DFOB, 4-methylphenoxyacetate-desferrioxamine B]?
Answer: Fe efflux (59Fe released from prelabeled cells) [2]: 31.6%; competition with 59Fe-loaded transferrin for 59Fe, preventing accumulation of Fe within the cell (SK-N-MC cells): more efficient

Question: For CC(=O)N(O)CCCCCNC(=O)CCC(=O)N(O)CCCCCNC(=O)CCC(=O)N(O)CCCCCNC(=O)CCCC[C@@H]1SC[C@@H]2NC(=O)N[C@@H]21 [Biotin-DFOB, biotin-desferrioxamine B], which “Fe efflux” value [2] is on record?
Answer: 6.6%

Source: US8309583B2, “Desferrioxamine conjugates, derivatives and analogues” (priority 2007, dated 2012)
